The results in this text go back to ChEMBL document CHEMBL1777740, “Toward self-adjuvanting subunit vaccines: model peptide and protein antigens incorporating covalently bound toll-like receptor-7 agonistic imidazoquinolines” (Bioorg Med Chem Lett, 2011).

Active and inactive are the calls of the source. The rule behind the calls is not given here.

Assay type in all cases: functional, cell-based
Test [1] has as its system PBMC. The experiment in a line: Immunostimulatory activity in human PBMC assessed as Th1-biased immunostimulatory activity measured as IL18 release by ELISA. For orientation: ELISA stands for enzyme-linked immunosorbent assay.
The test system of test [2] is PBMC. In words: Immunostimulatory activity in human PBMC assessed as Th1-biased immunostimulatory activity measured as IL12 release by ELISA.
Test [3] has as its system PBMC. In words: Immunostimulatory activity in human PBMC assessed as Th1-biased immunostimulatory activity measured as IFN-gamma release by ELISA.
Test [4] deals with PBMC. The experiment in a line: Immunostimulatory activity in human PBMC assessed as Th1-biased immunostimulatory activity measured as IFNalpha release by ELISA.
In test [5] the target is T1, Toll-like receptor 7 (Homo sapiens) (UniProt Q9NYK1).
T1 sequence (whole entry): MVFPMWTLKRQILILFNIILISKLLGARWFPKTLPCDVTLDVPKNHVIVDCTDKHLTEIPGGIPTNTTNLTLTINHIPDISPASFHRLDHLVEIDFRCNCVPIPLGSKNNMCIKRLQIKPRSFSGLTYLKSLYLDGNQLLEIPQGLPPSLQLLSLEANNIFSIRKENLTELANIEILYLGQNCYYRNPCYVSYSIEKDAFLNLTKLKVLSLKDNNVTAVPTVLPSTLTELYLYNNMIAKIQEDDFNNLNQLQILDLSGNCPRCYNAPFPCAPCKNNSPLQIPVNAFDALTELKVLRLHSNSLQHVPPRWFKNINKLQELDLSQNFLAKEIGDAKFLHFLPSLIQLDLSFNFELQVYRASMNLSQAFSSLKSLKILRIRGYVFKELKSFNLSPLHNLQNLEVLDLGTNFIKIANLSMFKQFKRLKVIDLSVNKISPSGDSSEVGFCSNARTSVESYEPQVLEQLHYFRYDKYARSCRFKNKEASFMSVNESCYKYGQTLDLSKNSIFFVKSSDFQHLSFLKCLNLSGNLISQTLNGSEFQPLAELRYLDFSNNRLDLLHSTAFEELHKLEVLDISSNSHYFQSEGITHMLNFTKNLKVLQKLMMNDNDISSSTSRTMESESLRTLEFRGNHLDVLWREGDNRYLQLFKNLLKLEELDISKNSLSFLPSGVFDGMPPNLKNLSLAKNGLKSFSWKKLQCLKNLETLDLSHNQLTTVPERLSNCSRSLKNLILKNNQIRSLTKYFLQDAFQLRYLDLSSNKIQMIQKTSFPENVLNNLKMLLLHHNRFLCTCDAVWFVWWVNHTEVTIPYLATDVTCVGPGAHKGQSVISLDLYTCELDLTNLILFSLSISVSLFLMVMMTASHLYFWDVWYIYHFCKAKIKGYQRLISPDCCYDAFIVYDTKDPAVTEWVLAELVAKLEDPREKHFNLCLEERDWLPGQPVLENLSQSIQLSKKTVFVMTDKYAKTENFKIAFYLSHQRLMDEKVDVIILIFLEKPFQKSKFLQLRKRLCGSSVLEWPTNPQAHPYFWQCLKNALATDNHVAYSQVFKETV
In words: Agonist activity at human TLR7 transfected in HEK reporter cells assessed as NF-kappaB induction by specific secreted alkaline phosphatase gene assay. To be noted: HEK293.

Consider `CCCCc1nc2c(N)nc3ccccc3c2n1Cc1ccc(CN)cc1`, for which the outcome in the test on PBMC [1], with PBMC [2], in the test with PBMC [3] and in the test with PBMC [4] was Active.

Take `CCCCc1nc2c(N)nc3ccccc3c2n1Cc1ccc(CNC(=O)CCN2C(=O)CC(SC[C@@H](NC(=O)CC[C@@H](N)C(=O)O)C(=O)NCC(=O)O)C2=O)cc1` (stereo not given in full): the outcome in test [5] was inactive.
